# Test results taken from patent US12553028B2, “Method to generate induced oligodendrocyte-lineage cells and treatment using such cells” (ACADEMIA SINICA, priority 2018, dated 2026).
# Entries after “also recorded” stand apart in the source; their conditions may differ.
# Key:
# [1] = tested on: human primary skin fibroblasts; test: Generation of induced OLGs from skin fibroblasts by chemical treatment (morphology / conversion); format: cell-based; settings: for morphology of induced OLGs when replacing VPA: replaces VPA at the first step induction, compared to the original cocktail
# Description: (§1) Cells (1×10^4) were plated on each well of a 24-well plate. Culture in HG-DMEM (Life technologies) supplement with 10% fetal bovine serum (FBS) (Hyclone) for 2 days, replace the medium with Knockout medium supplement with 1% N2 supplement, 1% Albumax, 1% NEAA (treatment medium, all form Life technologies) or DMEM/F12 with 1% N2, 1% B27, 20 ng/mL PDGF-AA, EGF, bFGF and 10 ng/mL NT3 and added the different treatment chemical compound cocktails, The final condition are 3 mM Valproic acid for 2 days, 10 μM Y27632, 10 μM SU9516, 10 μM Forskolin (FSK) (Tocris) for 1 days; or 10 μM Mocetinostat or Pracinostat for 2 days, 10 μM Y27632, 10 μM SU9516, 10 μM Forskolin (FSK) (Tocris) for 1 days.
# [2] = tested on: human primary skin fibroblasts; test: Immunofluorescence assay of oligodendrocyte markers on induced cells; format: cell-based
# Description: as §1
# The induced OLGs were fixed with 4% formaldehyde for […] at room temperature. After washing with 1×PBS, cells were permeabilized with 0.03% Triton X-100 for 5 min. The cells were washed twice with 1×PBS, and then were incubated with primary antibodies [against Olig2 antibody (1:100; Merck millipore), Nkx2.2 (1:100; Stanta Cruz), O4 antibody (1:100; Merck millipore), MBP antibody (1:100; Proteintech), PDGFRα antibody (1:100; R&D systems)] and 4′,6-diamidino-2-phenylindole (DAPI) (1:1500; Life technologies) in blocking buffer (0.02% BSA in PBS) for overnight at 4° C. Cells were washed twice in 1×PBS, followed by an incubation in CF555 goat anti-rabbit secondary antibody (1:200; Life technologies), CF488 goat anti-rabbit secondary antibody (1:200; Biotium), CF555 goat anti-mouse secondary antibody (1:200; Life technologies), CF488 goat anti-mouse secondary antibody (1:200; Biotium), CF555 goat anti-rat secondary antibody (1:200; Life technologies) in blocking buffer for 1 hr in the dark at room temperature. Cells were washed twice in 1×PBS, and the cells will be keeping in 1×PBS. Fluorescence was analyzed by using a fluorescence microscope. The fluorescence intensity of each image was analyzed by an image analysis software (Image-Pro plus 4.5 software, MD, USA). Each immunofluorescence image was quantified more than 300 cells per field.
smiles,measurement,setting,value
"COc1ccc2c(c1)c(C1=C(c3c[nH]c4ccccc34)C(=O)NC1=O)cn2CCCN(C)C [Go6983, 3-{1-[3-(Dimethylamino)propyl]-5-methoxy-1H-indol-3-yl}-4-(1H-indol-3-yl)-1H-pyrrole-2,5-dione]",conversion of fibroblasts into OLG like cells,[1],dispensable for the conversion process
same,dendrite-like formation,[1]; Go6983 together with Y27632 and SU9516,promoted the dendrite-like formation
"Nc1ccccc1NC(=O)c1ccc(CNc2nccc(-c3cccnc3)n2)cc1 [Mocetinostat, N-(2-aminophenyl)-4-((4-(pyridin-3-yl)pyrimidin-2-ylamino)methyl)benzamide]",morphology of induced OLGs when replacing VPA,[1],more mature oligodendroglia morphology
same,MBP expression (immunofluorescence),[2],expressed; also recorded: stronger expression
same,O4 expression (immunofluorescence),[2],expressed; also recorded: stronger expression
"CCCCc1nc2cc(/C=C/C(=O)NO)ccc2n1CCN(CC)CC [Pracinostat, (E)-3-(2-butyl-1-(2-(diethylamino)ethyl)-1H-benzo[d]imidazol-5-yl)-N-hydroxyacrylamide]",morphology of induced OLGs when replacing VPA,[1],more mature oligodendroglia morphology
same,MBP expression (immunofluorescence),[2],expressed; also recorded: stronger expression
same,O4 expression (immunofluorescence),[2],expressed; also recorded: stronger expression
"COc1ccc2c(c1)/C(=C/c1cnc[nH]1)C(=O)N2 [SU9516, (Z)-3-((1H-imidazol-5-yl)methylene)-5-methoxyindolin-2-one]",morphological change of fibroblasts,[1],domed-shape formation
"C[C@@H](N)[C@H]1CC[C@H](C(=O)Nc2ccncc2)CC1 [Y27632, Trans-4-[(1R)-1-Aminoethyl]-N-(4-pyridinyl)cyclohexane-carboxamide]",morphological change of fibroblasts,[1],dendritic-like morphological change
"C=C[C@@]1(C)CC(=O)[C@]2(O)[C@@]3(C)[C@@H](O)CCC(C)(C)[C@@H]3[C@H](O)[C@H](OC(C)=O)[C@@]2(C)O1 [forskolin, (3R,4aR,5S,6S,6aS,10S,10aR, 10bS)-6,10,10b-Trihydroxy-3,4a,7,7,10a-pentamethyl-1-oxo-3-vinyldodecahydro-1H-benzo[f]chromen-5-yl acetate]",promotion of the conversion (screen for supporting factors),[1]; screen of 22 drugs on the YSG cocktail after pre-treating with VPA,significantly promoted the conversion
"CCCC(CCC)C(=O)O [valproic acid, 2-Propylpentanoic acid]",reprogramming efficiency,"[1]; pretreating for 2 days before Y27632, SU9516, Go6983",enhance the reprogramming efficiency
